Data from publication PMC6406907, “A H2AX–CARP-1 Interaction Regulates Apoptosis Signaling Following DNA Damage” (Cancers, 2019).
No end group written: not given here. HA = not defined here

Experiments:
[1] = test system: endogenous H2AX; assay: Anti-EGFP co-immunoprecipitation with endogenous H2AX; assay type: cell-based, human; conditions: MDA-MB-468 stable subline, anti-EGFP IP, anti-H2AX WB; Figure 5C
Procedure: Logarithmically growing cells were either untreated or treated with different agents for various time periods. The cells were lysed to prepare protein extracts. IP was carried out by incubating approximately 1 mg of the protein lysate with appropriate antibodies. The immunoprecipitates were then analyzed by SDS-PAGE, followed by WB with respective, interacting protein. For Gst-pulldown, Gst-H2AX or various His-TAT-HA-tagged CARP-1 peptides were generated in Escherichia coli (E. coli) BL21 cells essentially as described by us previously. Briefly, the competent E. coli BL-21 (DE3) pLysS cells were transformed separately with various recombinant pGEX-4T-1 or pTAT-HA constructs. The transformed cells were then subjected to selection by combined presence of ampicillin and chloramphenicol; various isolates for each transformation were obtained and bacterial lysates were characterized for expression of fusion peptides. Cells from each isolate were grown in 4 mL of LB medium containing ampicillin only until the optical density (OD)600 reached 0.4–0.8. Expression of fusion peptides was induced over 2–4 h incubation periods after Isopropyl β-D-1-thiogalactopyranoside (IPTG) addition. […]
Figure 5 Fine Mapping of H2AX/CARP-1 interacting epitopes. […] Following stringent washing, the bound proteins were analyzed with WB using anti-HA (upper) or anti-Gst (middle) antibodies. […]

[2] = test system: HeLa cells; assay: Transduction/localization of TAT-tagged proteins, HeLa; assay type: cell-based, human; conditions: 300 μg/mL, confocal
Procedure: Cells were plated onto chamber slides one day before treatment. Following treatment of cells with respective compounds, the adherent cells were fixed with 5% formaldehyde for 10 min and then washed with phosphate buffered saline (PBS). Samples were blocked (0.5% NP-40, 5% milk powder, 1% fetal bovine serum) for 30 min. After a single wash with PBS, cells were incubated with primary antibodies for 45 to 60 min. Coverslips were washed with PBS and then incubated with secondary antibodies for another 45 to 60 min. They were then washed with PBS and mounted with 0.1 μg/mL 4′,6′-diamidino-2-phenylindole (DAPI) containing mounting solution. […]
We further tested whether and the extent to which transient and ectopic expression of CARP-1 (636–650) peptide would also interfere with the cell-growth inhibition by Adriamycin. […] The wild-type MDA-MB-468 or HeLa cells were pre-incubated with His-TAT-HA-EGFP or His-TAT-HA-CARP-1 (636–650) proteins, and presence of GFP and CARP-1 (636–650) was determined by immuno-cytochemical staining followed by photography using a confocal microscope as above. […]
Figure S9. […] Multiple cells from each of the confocal images in the γH2AX column of Figure 8C were subjected to quantitation for levels of γH2AX. The quantitation of the images of stained cells was carried out by using ImageJ software (imagej.nih.gov/ij/plugins/track/jacop2). […]

EGFP-CARP-1 (636–650): EGFP-tagged fusion protein stably expressed in MDA-MB-468 and HeLa sublines (PKTMKVNDLRKELES; also: EGFP fusion kept, end not given here)
in-cell interaction with endogenous H2AX [1]: robust, in vivo (in-cell) interaction

His-TAT-HA-CARP-1 (636–650): His-TAT-HA-tagged CARP-1 (636–650) peptide, >95% purity, commercially synthesized ({His-TAT-HA}-PKTMKVNDLRKELES; reading uncertain; UniProt Q8IX12 636-650, looked up, fragment)
cellular localization after transduction [2]: predominantly present in the cytoplasmic region
